According to patent US10631541B1, “Nitrogen-15 isotope as a plant growth regulator” (Floratine Products Group, Inc, priority 2016, dated 2020):

How the values were obtained:
Annual Rye = test: Laboratory trial: Annual Rye seeds in trays of potting soil, sprayed every other day; assay type: in vivo; details: averages of 74 plants per tray after 1 week; for Root Length, percent inc (versus sugar solution): increase over sugar solution (2.9 cm); for Blade Length, percent increase (versus sugar solution): increase over sugar solution (6.3 cm); for Blade Length / Root Length: ingredient added to standard sugar solution (Ni 0.003% w/w, Co 0.003% w/w, nitrogen-15 0.00001% w/w), spray 12 ml per square meter every other day
Procedure: Some characteristics of the plant growth regulating composition according to the invention are illustrated by the following examples. The laboratory trial involved planting Annual Rye seeds in trays of commercially available potting soil. The seed density on the trays was 358 grams per square meter. The volume of each spray was 12 ml per square meter after the grass emerged. The spray frequency was every other day. The following ingredients were added at these concentrations to a standard sugar solution: Ni 0.003% w/w (Nickel), Co 0.003% w/w (cobalt) and nitrogen-15 0.00001% w/w.

Common Bermuda = test: Trial on turf, sprayed once with nitrogen-15 spray solutions; assay type: in vivo
Procedure: A trial on turf was conducted on Common Bermuda. The turf was sprayed once with spray solutions that contained four concentrations of nitrogen-15 ammonium sulfate. The concentrations ranged from: 0.001% though 0.004% w/w. The nitrogen-15 was mixed with a sugar solution as in the laboratory trial.

## [Co] [Co, cobalt]
Annual Rye
  Root Length, percent inc (versus sugar solution): 41.40%
  Blade Length, percent increase (versus sugar solution): 11.10%
  Blade Length: 7.0 cm
  Root Length: 4.1 cm

## [Ni] [Ni, Nickel]
Annual Rye
  Root Length, percent inc (versus sugar solution): 41.40%
  Blade Length, percent increase (versus sugar solution): 15.90%
  Blade Length: 7.3 cm
  Root Length: 4.1 cm

## O=S(=O)(O)O.[15NH3].[15NH3] [nitrogen-15 ammonium sulfate]
Common Bermuda; plot sprayed once with 0.004% w/w in sugar solution, four concentrations 0.001% through 0.004% w/w compared
  visual color of turf plot: darkest green
Common Bermuda; turf sprayed once, 0.001% through 0.004% w/w in sugar solution
  Percent increase in leaf length: the same as the laboratory trial

## Nitrogen-15
Annual Rye
  Root Length, percent inc (versus sugar solution): 20.70%
  Blade Length, percent increase (versus sugar solution): 25.40%
  Blade Length: 7.9 cm
  Root Length: 3.5 cm
